Experimental data: patent US7989467B2, “Use of indole-derived compounds for the preparation of a medicament that can be used to treat diseases related to the splicing process” (Centre National de la Recherche Scientifique (CNRS), priority 2003, dated 2011)

The molecules below were run against T1, SRp55 (Homo sapiens, UniProt Q13247) (assay: In vitro splicing results, Table 3: SRp55). Details: summary of Table 3.
T1 sequence (Q13247 1-344): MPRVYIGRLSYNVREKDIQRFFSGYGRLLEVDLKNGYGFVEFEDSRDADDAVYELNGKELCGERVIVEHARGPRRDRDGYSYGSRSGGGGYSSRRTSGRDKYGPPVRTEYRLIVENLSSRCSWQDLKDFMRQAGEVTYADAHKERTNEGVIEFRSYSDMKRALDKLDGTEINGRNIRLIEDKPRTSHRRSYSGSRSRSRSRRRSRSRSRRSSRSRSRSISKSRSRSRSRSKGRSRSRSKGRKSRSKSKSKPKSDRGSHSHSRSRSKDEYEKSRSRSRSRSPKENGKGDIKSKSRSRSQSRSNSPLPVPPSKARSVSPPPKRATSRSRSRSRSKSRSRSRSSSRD
Type: biochemical

Row | SMILES | inhibit the activity of the SRp55 protein specifically
1 | Cc1c2ccnc(NCCC(C)C)c2c(C)c2c1[nH]c1ccc(O)cc12 [C19, 5,11-dimethyl-1-(3-methyl-butylamino)-6H-pyrido[4,3-b]carbazol-9-ol] | inhibit the activity of the SRp55 protein specifically
2 | COc1ccc2[nH]c3c(C)c4ccnc(NCCN5CCCC5)c4cc3c2c1 [C42, (9-methoxy-5-methyl-6H-pyrido[4,3-b]carbazol-1-yl)-(2-pyrrolidin-1-yl-ethyl)-amine] | inhibit the activity of the SRp55 protein specifically
3 | Cc1cnc(NCCCN(C)C)c2c1[nH]c1c3cccc(O)c3ccc12 [C76, 7-(3-dimethylamino-propylamino)-10-methyl-11H-benzo[g]pyrido[4,3-b]indol-4-ol] | inhibit the activity of the SRp55 protein specifically
4 | COc1ccc2ccc3[nH]c4c(C)cnc(NCCCN(C)C)c4c3c2c1 [C77, N′-(2-methoxy-8-methyl-7H-benzo[e]pyrido[4,3-b]indol-11-yl)-N,N-dimethyl-propane-1,3-diamine] | inhibit the activity of the SRp55 protein specifically
5 | CCN(CC)CCCNc1ncc(C)c2c1c1ccc3ccccc3c1n2C [C78, N′-(10,11-dimethyl-11H-benzo[g]pyrido[4,3-b]indol-7-yl)-N,N-diethyl-propane-1,3-diamine] | inhibit the activity of the SRp55 protein specifically
6 | Cc1cnc(NCCCN(C)C)c2c3c4ccccc4ccc3n(C)c12 [C79, N′-(7,8-dimethyl-7H-benzo[e]pyrido[4,3-b]indol-11-yl)-N,N-dimethyl-propane-1,3-diamine] | inhibit the activity of the SRp55 protein specifically
7 | Cc1cnc(NCCCN(C)C)c2c1[nH]c1c3ccccc3ccc12 [C80, N,N-dimethyl-N′-(10-methyl-11H-benzo[g]pyrido[4,3-b]indoi-7-yl)-propane-1,3-diamine] | inhibit the activity of the SRp55 protein specifically
8 | CCN(CC)CCCNc1ncc(C)c2[nH]c3c4ccccc4ccc3c12 [C82, N,N-diethyl-N′-(10-methyl-11H-benzo[g]pyrido[4,3-b]indol-7-yl)-propane-1,3-diamine] | inhibit the activity of the SRp55 protein specifically
9 | COc1cccc2c1ccc1c3c(NCCCN(C)C)ncc(C)c3n(C)c21 [C85, N′-(4-methoxy-10,11-dimethyl-11H-benzo[g]pyrido[4,3-b]indol-7-yl)-N,N-dimethyl-propane-1,3-diamine] | inhibit the activity of the SRp55 protein specifically

Each molecule was assayed on HIV (assay: Inhibition of HIV multiplication in PMA-stimulated U1 cells (RT-PCR of viral transcripts)). Details: 2.5 μM; 24 h; U1 cells treated with 50 nM PMA; FIG. 6.
Type: cell-based
Source text: To this end, human […] cell line U1, which is chronically infected by HIV (Folks et al., 1988. Characterization of a promonocyte clone chronically infected with HIV and inducible by 13-phorbol-12-myristate acetate. J. Immunol., 140: 1117-1122) and which produces large quantities of virus after stimulation by PMA (phorbol myristate acetate), was used. As a result, this cell line constitutes an excellent model to mimic the transition between the latency phase and the viral production phase observed in patients infected by HIV.
The results of this experiment are presented in FIG. 6 in which U1 cells (5×10^5) were treated with 50 nM of PMA in the absence (FIG. 6, lane 1) or in the presence of 2.5 μM of compounds C47, C97, C58, C57, C92, C91, C90, C83, C73, C34, C51, C45, C13, C10, C44, C6, C7, C41, C50, C32, C2, C1, C29, C35 and C99 (FIG. 6, lanes 3-27, respectively). After 24 h of treatment, the virus's transcripts were amplified by RT-PCR using specific VIH, BSS and SJ4.7A primers (Jacquenet et al., 2001, A second exon splicing silencer within human immunodeficiency virus type 1 tat exon 2 represses splicing of Tat mRNA and binds protein hnRNP. H. J. Biol. Chem. 276: 40464-75) and a radioactive tracer (α-32P) CTP.

Row | SMILES | inhibition of HIV multiplication (amplification of viral transcripts)
10 | COc1ccc2c(c1)c1c(C)c3c(NCCCN(C)C)nccc3c(C)c1n2C [C1, N′-(9-methoxy-5,6,11-trimetyl-6H-pyrido[4,3-b]carbazol-1-yl)-N,N-dimethyl-propane-1,3-diamine] | excellent inhibitors of HIV multiplication
11 | C=CCNc1nccc2c(C)c3[nH]c4ccc(OC)cc4c3c(C)c12 [C10, allyl-(9-methoxy-5,11-dimethyl-6H-pyrido[4,3-b]carbazol-1-yl)-amine] | excellent inhibitors of HIV multiplication
12 | COc1ccc2[nH]c3c(C)c4ccnc(NCCCCCCNc5c6cc7c([nH]c8ccc(OC)cc87)c(C)c6cc[n+]5C)c4cc3c2c1.[I-] [C13, 9-methoxy-1-[6-(9-methoxy-5-methyl-6H-pyrido[4,3-b]carbazol-1-ylamino)-hexylamino]-2,5-dimethyl-6H-pyrido[4,3-b]carbazol-2-ium iodide] | excellent inhibitors of HIV multiplication
13 | CCN(CC)CCNc1nccc2c(C)c3c(c(C)c12)c1cc(OC)ccc1n3C [C29, N,N-diethyl-N′-(9-methoxy-5,6,11-trimethyl-6H-pyrido[4,3-b]carbazol-1-yl)-ethane-1,2-diamine] | excellent inhibitors of HIV multiplication
14 | Cc1c2ccnc(NCCCN(C)C)c2cc2c3cnccc3n(C)c12 [C32, N′-(5,6-dimethyl-5H-pyrido[3′4′:4,5]pyrrolo[2,3-g]isoquinolin-10-yl)-N,N-dimethyl-propane-1,3-diamine] | excellent inhibitors of HIV multiplication
15 | CCN(CC)CCCNc1nccc2c(C)c3[nH]c4ccc(O)cc4c3cc12 [C35, 1-(3-diethylamino-propylamino)-5-methyl-6H-pyrido[4,3-b]carbazol-9-ol] | excellent inhibitors of HIV multiplication
16 | CCN(CC)CCCNc1nccc2c(C)c3[nH]c4ccc(OC)cc4c3c(C)c12 [C41, N,N-diethyl-N′-(9-methoxy-5,11-dimethyl-6H-pyrido[4,3-b]carbazol-1-yl)-propane-1,3-diamine] | excellent inhibitors of HIV multiplication
17 | CCN(CC)CC(O)CNc1nccc2c(C)c3[nH]c4ccc(OC)cc4c3cc12 (stereo not drawn) [C44, 1-diethylamino-3-(9-methoxy-5-methyl-6H-pyrido[4,3-b]carbazol-1-ylamino)-propan-2-ol] | excellent inhibitors of HIV multiplication
18 | COc1ccc2c(ccc3c2[nH]c2c(C)cnc(NCCCCN)c23)c1 [C47, N-(3-methoxy-10-methyl-11H-benzo[g]pyrido[4,3-b]indol-7-yl)-butane-1,4-diamine] | excellent inhibitors of HIV multiplication
19 | CCN(CC)CCCNc1nccc2c(C)c3[nH]c4ccncc4c3cc12 [C51, N-N,diethyl-N′-(6-methyl-5H-pyrido[3′,4′:4,5]pyrrolo[2,3-g]isoquinolin-10-yl)-propane-1,3-diamine] | excellent inhibitors of HIV multiplication
20 | COc1cccc2c1ccc1c2[nH]c2c(C)cnc(N)c21 [C83, 4-methoxy-10-methyl-11H-benzo[g]pyrido[4,3-b]indol-7-ylamine] | excellent inhibitors of HIV multiplication
21 | COc1ccc2c(ccc3c2[nH]c2c(C)cnc(NCCCN)c23)c1 [C91, N-(3-methoxy-10-methyl-11H-benzo[g]pyrido[4,3-b]indol-7-yl)-propane-1,3-diamine] | excellent inhibitors of HIV multiplication
22 | COc1ccc2c(ccc3[nH]c4c(C)cnc(NCCCN(C)C)c4c32)c1 [C92, N′-(3-methoxy-8-methyl-7H-benzo[e]pyrido[4,3-b]indol-11-yl)-N,N-dimethyl-propane-1,3-diamine] | excellent inhibitors of HIV multiplication
23 | COc1ccc2c(ccc3c2[nH]c2c(C)cnc(NCCCN(C)CCCN)c23)c1 [C97, N-[3-(3-methoxy-10-methyl-11H-benzo[g]pyrido[4,3-b]indol-7-ylamino)-propyl]-N-methyl-propane-1,3-diamine] | excellent inhibitors of HIV multiplication
24 | CCNCCCNc1nccc2c(C)c3c(cc12)c1cnccc1n3C [C99, N-(5,6-dimethyl-5H-pyrido[3′4′:4,5]pyrrolo[2,3-g]isoquinolin-10-yl)-N′-ethyl-propane-1,3-diamine] | excellent inhibitors of HIV multiplication
